Data reported in patent US10233191B2, “Fused piperidine amides as modulators of ion channels” (Vertex Pharmaceuticals Incorporated, priority 2013, dated 2019).

Target: T1, NaV 1.7 (Homo sapiens, UniProt Q15858)
T1 construct: expressed in transfected cells; host or cells: HEK cells
Experiment: E-VIPR optical membrane potential assay with electrical stimulation
Format: cell-based
Settings: active against one or more sodium channels; assay/subtype not specified in Table 4; read-out: IC50 Binned Activity Data
In short: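 HEK cells expressing human NaV1.7, loaded with CC2-DMPE/DiSBAC6(3) FRET dyes, then exposed to compounds for 20-35 min at room temperature (0.625% DMSO). Electrical stimulation applied for 9 s with 400 Hz scanning. Read-out is the background-subtracted 460/580 nm emission ratio, normalized.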

T1 sequence (Q15858 whole entry): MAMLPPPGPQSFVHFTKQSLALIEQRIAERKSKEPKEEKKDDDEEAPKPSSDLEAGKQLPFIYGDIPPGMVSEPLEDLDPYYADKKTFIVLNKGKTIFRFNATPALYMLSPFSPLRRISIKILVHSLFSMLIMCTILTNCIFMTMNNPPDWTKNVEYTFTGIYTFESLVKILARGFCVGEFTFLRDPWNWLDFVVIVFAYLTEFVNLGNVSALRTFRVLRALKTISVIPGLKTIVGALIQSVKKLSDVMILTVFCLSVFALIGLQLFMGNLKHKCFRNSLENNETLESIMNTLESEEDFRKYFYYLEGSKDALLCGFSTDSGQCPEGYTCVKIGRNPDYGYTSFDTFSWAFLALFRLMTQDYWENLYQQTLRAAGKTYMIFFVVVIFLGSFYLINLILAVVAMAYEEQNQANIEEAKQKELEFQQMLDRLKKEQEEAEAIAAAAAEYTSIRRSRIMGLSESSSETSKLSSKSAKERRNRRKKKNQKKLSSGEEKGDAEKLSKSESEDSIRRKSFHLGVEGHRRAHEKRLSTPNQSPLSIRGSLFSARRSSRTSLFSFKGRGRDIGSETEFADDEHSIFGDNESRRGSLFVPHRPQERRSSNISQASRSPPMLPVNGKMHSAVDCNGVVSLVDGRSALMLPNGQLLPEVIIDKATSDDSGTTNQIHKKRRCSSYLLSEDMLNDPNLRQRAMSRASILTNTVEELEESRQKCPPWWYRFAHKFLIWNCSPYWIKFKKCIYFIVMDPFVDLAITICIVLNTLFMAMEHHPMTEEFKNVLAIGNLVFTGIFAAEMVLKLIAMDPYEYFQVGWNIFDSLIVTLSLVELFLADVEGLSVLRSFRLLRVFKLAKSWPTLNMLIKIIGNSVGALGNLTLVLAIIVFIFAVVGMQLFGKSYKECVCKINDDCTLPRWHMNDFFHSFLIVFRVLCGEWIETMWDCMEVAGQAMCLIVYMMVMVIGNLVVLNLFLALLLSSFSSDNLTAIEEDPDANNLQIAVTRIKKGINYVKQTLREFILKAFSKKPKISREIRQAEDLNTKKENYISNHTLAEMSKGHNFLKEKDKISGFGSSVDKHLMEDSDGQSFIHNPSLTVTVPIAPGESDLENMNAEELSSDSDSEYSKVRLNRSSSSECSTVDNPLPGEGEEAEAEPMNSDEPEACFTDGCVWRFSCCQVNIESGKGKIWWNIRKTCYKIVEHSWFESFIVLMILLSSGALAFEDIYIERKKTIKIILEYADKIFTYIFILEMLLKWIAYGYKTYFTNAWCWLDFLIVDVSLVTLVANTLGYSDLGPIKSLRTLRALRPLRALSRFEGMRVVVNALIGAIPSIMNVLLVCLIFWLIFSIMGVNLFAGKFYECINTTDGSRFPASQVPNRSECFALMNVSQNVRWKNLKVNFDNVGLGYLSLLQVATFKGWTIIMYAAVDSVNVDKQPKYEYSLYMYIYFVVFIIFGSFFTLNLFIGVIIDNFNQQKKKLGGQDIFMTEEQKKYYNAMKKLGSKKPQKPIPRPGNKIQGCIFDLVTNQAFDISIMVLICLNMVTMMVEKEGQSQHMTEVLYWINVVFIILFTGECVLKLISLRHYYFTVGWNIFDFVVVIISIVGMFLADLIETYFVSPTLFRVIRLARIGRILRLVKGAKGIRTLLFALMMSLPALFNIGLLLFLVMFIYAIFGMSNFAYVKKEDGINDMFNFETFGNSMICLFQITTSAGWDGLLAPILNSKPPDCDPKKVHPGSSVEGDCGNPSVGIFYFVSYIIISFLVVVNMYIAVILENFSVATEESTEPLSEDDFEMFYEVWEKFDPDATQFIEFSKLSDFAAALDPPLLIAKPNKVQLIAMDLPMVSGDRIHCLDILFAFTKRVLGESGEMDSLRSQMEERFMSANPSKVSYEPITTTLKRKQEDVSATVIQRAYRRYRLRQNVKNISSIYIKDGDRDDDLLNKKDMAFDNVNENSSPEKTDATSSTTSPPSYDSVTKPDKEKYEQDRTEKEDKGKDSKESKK

Row | IC50 | Structure (SMILES)
1 | ≤ 2 µM | O=C(c1ccc(OCCOC(F)(F)F)c(Cl)c1)N1CC[C@]2(c3cccc(F)c3)OCOC2C1 (stereo partly drawn) [Compound 255]
2 | ≤ 2 µM | Cc1cc(C(=O)N2CC[C@]3(c4cccc(F)c4)OCOC3C2)ccc1OCC(C)(C)F (stereo partly drawn) [Compound 256]
3 | ≤ 2 µM | COc1cc(C(=O)N2CC[C@]3(c4cccc(F)c4F)OCOC3C2)ccc1O[C@H](C)C(F)(F)F (stereo partly drawn) [Compound 257]
4 | ≤ 2 µM | COc1cc(C(=O)N2CC[C@]3(c4cccc(F)c4F)OCOC3C2)ccc1O[C@@H](C)C(F)(F)F (stereo partly drawn) [Compound 258]
5 | ≤ 2 µM | COc1cc(C(=O)N2CCC3(c4ccccn4)C(C2)C3(F)F)ccc1OCC1CC(F)(F)C1 (stereo not drawn) [Compound 259]
6 | ≤ 2 µM | COc1cc(C(=O)N2CCC3(c4ccccn4)C(C2)C3(F)F)ccc1OCCOC(F)(F)F (stereo not drawn) [Compound 260]
7 | > 5 µM | O=C(c1ccc(S(=O)(=O)C(F)F)cc1)N1CC[C@]2(c3cccc(F)c3)OCOC2C1 (stereo partly drawn) [Compound 261]
8 | ≤ 2 µM | COc1nc(C(=O)N2CC[C@]3(c4cccc(F)c4F)OCOC3C2)ccc1OCC(F)(F)C(F)F (stereo partly drawn) [Compound 262]
9 | ≤ 2 µM | COc1nc(C(=O)N2CC[C@]3(c4cccc(F)c4F)OCOC3C2)ccc1OC(C)C(F)(F)F (stereo partly drawn) [Compound 263]
10 | ≤ 2 µM | COc1nc(C(=O)N2CC[C@]3(c4cccc(F)c4)OCOC3C2)ccc1OC(C)C(F)(F)F (stereo partly drawn) [Compound 264]
11 | ≤ 2 µM | COc1nc(C(=O)N2CC[C@]3(c4ccccc4)OCOC3C2)ccc1OCC1(C(F)(F)F)CC1 (stereo partly drawn) [Compound 265]
12 | ≤ 2 µM | COc1cc(C(=O)N2CC[C@@]3(c4ccccn4)CC3C2)ccc1OCCOC(F)(F)F (stereo partly drawn) [Compound 266]
13 | ≤ 2 µM | COc1nc(C(=O)N2CC[C@]3(c4cccc(C(F)(F)F)n4)OCOC3C2)ccc1OCC1CC(F)(F)C1 (stereo partly drawn) [Compound 267]
14 | ≤ 2 µM | COc1nc(C(=O)N2CC[C@]3(c4cccc(F)c4)OCOC3C2)ccc1OCC1(C(F)(F)F)CC1 (stereo partly drawn) [Compound 268]
15 | ≤ 2 µM | [2H]C1([2H])OC2CN(C(=O)c3ccc(OCC4(C(F)(F)F)CC4)c(OC)n3)CC[C@]2(c2cc(F)cc(F)c2)O1 (stereo partly drawn) [Compound 269]
16 | ≤ 2 µM | COc1nc(C(=O)N2CC[C@]3(c4cccc(Cl)c4)OCOC3C2)ccc1OCC1(C(F)(F)F)CC1 (stereo partly drawn) [Compound 270]
17 | ≤ 2 µM | COc1nc(C(=O)N2CC[C@]3(c4cccc(F)c4F)OCOC3C2)ccc1OCC1(C(F)(F)F)CC1 (stereo partly drawn) [Compound 271]
18 | ≤ 2 µM | COc1nc(C(=O)N2CC[C@]3(c4cccc(C(F)(F)F)n4)OCOC3C2)ccc1OCCOC(F)(F)F (stereo partly drawn) [Compound 272]
19 | ≤ 2 µM | COc1cc(C(=O)N2CC[C@]3(c4cccc(C(F)(F)F)n4)OCOC3C2)ccc1OC(C)C(F)(F)F (stereo partly drawn) [Compound 273]
20 | ≤ 2 µM | COc1cc(C(=O)N2CC[C@]3(c4cccc(C(F)(F)F)n4)OCOC3C2)ccc1OCCC(F)(F)F (stereo partly drawn) [Compound 274]

Row | IC50 | Structure (SMILES)
21 | ≤ 2 µM | COc1cc(C(=O)N2CC[C@]3(c4cccc(C(F)(F)F)n4)OCOC3C2)ccc1OCC1CC(F)(F)C1 (stereo partly drawn) [Compound 275]
22 | > 5 µM | COc1cc(C(=O)N2CC[C@]3(c4ccccn4)COC[C@@H]3C2)ccc1OCCOC(F)(F)F [Compound 276]
23 | ≤ 2 µM | COc1cc(C(=O)N2CC[C@]3(c4ccccn4)C(=O)OCC3C2)ccc1OCCOC(F)(F)F (stereo partly drawn) [Compound 277]
24 | ≤ 2 µM | COc1cc(C(=O)N2CC[C@@]3(c4ccccn4)COCC3C2)ccc1OCCOC(F)(F)F (stereo partly drawn) [Compound 278]
25 | ≤ 2 µM | [2H]C1([2H])OC2CN(C(=O)c3ccc(OCC4CC(F)(F)C4)c(OC)n3)CC[C@]2(c2cccc(F)c2)O1 (stereo partly drawn) [Compound 279]
26 | ≤ 2 µM | [2H]C1([2H])OC2CN(C(=O)c3ccc(OCC4CC(F)(F)C4)c(OC)n3)CC[C@]2(c2cc(F)cc(F)c2)O1 (stereo partly drawn) [Compound 280]
27 | ≤ 2 µM | COc1nc(C(=O)N2CC[C@]3(c4cccc(F)c4F)OCOC3C2)ccc1OCC1CC(F)(F)C1 (stereo partly drawn) [Compound 281]
28 | ≤ 2 µM | COc1cc(C(=O)N2CC[C@]3(c4cccc(F)c4F)OCOC3C2)ccc1OCCC(F)(F)F (stereo partly drawn) [Compound 282]
29 | ≤ 2 µM | COc1cc(C(=O)N2CC[C@]3(c4cccc(Cl)c4)OCOC3C2)ccc1OCCOC(F)(F)F (stereo partly drawn) [Compound 283]
30 | ≤ 2 µM | [2H]C1([2H])OC2CN(C(=O)c3ccc(OCC4CCC4)c(OC)n3)CC[C@]2(c2cccc(F)c2)O1 (stereo partly drawn) [Compound 284]
31 | ≤ 2 µM | COc1cc(C(=O)N2CCC3(c4ccccn4)CC3C2)ccc1OCCOC(F)(F)F (stereo not drawn) [Compound 285]
32 | ≤ 2 µM | COc1cc(C(=O)N2CC[C@]3(c4cc(F)ccc4F)OCOC3C2)ccc1OC(C)C(F)(F)F (stereo partly drawn) [Compound 286]
33 | ≤ 2 µM | COc1cc(C(=O)N2CC[C@]3(c4cc(F)ccc4F)OCOC3C2)ccc1OCCC(F)(F)F (stereo partly drawn) [Compound 287]
34 | ≤ 2 µM | COc1cc(C(=O)N2CC[C@]3(c4cc(F)ccc4F)OCOC3C2)ccc1OCC1CC(F)(F)C1 (stereo partly drawn) [Compound 288]
35 | ≤ 2 µM | COc1nc(C(=O)N2CC[C@]3(c4cc(F)ccc4F)OCOC3C2)ccc1OCCOC(F)(F)F (stereo partly drawn) [Compound 289]
36 | > 5 µM | COc1cc(C(=O)N2CC[C@]3(c4cccc(C#N)c4)OCOC3C2)ccc1OC(C)C(F)(F)F (stereo partly drawn) [Compound 290]
37 | ≤ 2 µM | COc1cc(C(=O)N2CC[C@]3(c4cccc(C#N)c4)OCOC3C2)ccc1OCC1CC(F)(F)C1 (stereo partly drawn) [Compound 291]
38 | ≤ 2 µM | COc1nc(C(=O)N2CC[C@]3(c4cccc(C#N)c4)OCOC3C2)ccc1OCCOC(F)(F)F (stereo partly drawn) [Compound 292]
39 | ≤ 2 µM | COc1cc(C(=O)N2CC[C@]3(c4cccc(C#N)c4)OCOC3C2)ccc1OCCOC(F)(F)F (stereo partly drawn) [Compound 293]
40 | ≤ 2 µM | O=C(c1cnc(OCCOC(F)(F)F)c(Cl)c1)N1CC[C@]2(c3ccccn3)OCOC2C1 (stereo partly drawn) [Compound 294]

Row | IC50 | Structure (SMILES)
41 | ≤ 2 µM | O=C(c1cnc(OCCOC(F)(F)F)c(Cl)c1)N1CC[C@]2(c3ccccc3)OCOC2C1 (stereo partly drawn) [Compound 295]
42 | 2 to 5 µM | O=C(c1cnc(OCCOC(F)(F)F)c(Cl)c1)N1CCC2(c3ccc(F)cc3)CC2C1 (stereo not drawn) [Compound 296]
43 | > 5 µM | COc1cc(C(=O)N2CCC3(c4ccc(F)cc4)CC3C2)ccc1OC(C)C(F)(F)F (stereo not drawn) [Compound 297]
44 | ≤ 2 µM | COc1cc(C(=O)N2CCC3(c4ccc(F)cc4)CC3C2)ccc1OCC1CC(F)(F)C1 (stereo not drawn) [Compound 298]
45 | ≤ 2 µM | COc1nc(C(=O)N2CCC3(c4ccc(F)cc4)CC3C2)ccc1OCCOC(F)(F)F (stereo not drawn) [Compound 299]
46 | ≤ 2 µM | COc1cc(C(=O)N2CCC3(c4ccc(F)cc4)CC3C2)ccc1OCCOC(F)(F)F (stereo not drawn) [Compound 300]
47 | ≤ 2 µM | O=C(c1ccc(OCCOC(F)(F)F)c(Cl)c1)N1CCC2(c3ccc(F)cc3)CC2C1 (stereo not drawn) [Compound 301]
48 | ≤ 2 µM | [2H]C1([2H])OC2CN(C(=O)c3ccc(OCCOC(F)(F)F)c(OC)c3)CC[C@]2(c2ccccc2)O1 (stereo partly drawn) [Compound 302]
49 | ≤ 2 µM | [2H]C1([2H])OC2CN(C(=O)c3ccc(OCCOC(F)(F)F)c(C)n3)CC[C@]2(c2ccccn2)O1 (stereo partly drawn) [Compound 303]
50 | ≤ 2 µM | [2H]C1([2H])OC2CN(C(=O)c3ccc(OCCOC(F)(F)F)c(Cl)c3)CC[C@]2(c2ccccn2)O1 (stereo partly drawn) [Compound 304]
51 | ≤ 2 µM | [2H]C1([2H])OC2CN(C(=O)c3ccc(OCCOC(F)(F)F)c(OC)c3)CC[C@]2(c2ccccn2)O1 (stereo partly drawn) [Compound 305]
52 | ≤ 2 µM | [2H]C1([2H])OC2CN(C(=O)c3ccc(OCCOC(F)(F)F)c(C)n3)CC[C@]2(c2cccc(F)c2)O1 (stereo partly drawn) [Compound 306]
53 | ≤ 2 µM | [2H]C1([2H])O[C@@H]2CN(C(=O)c3ccc(OC(C)C(F)(F)F)c(OC)c3)CC[C@]2(c2cccc(F)c2)O1 (stereo partly drawn) [Compound 307]
54 | ≤ 2 µM | [2H]C1([2H])OC2CN(C(=O)c3ccc(OCCOC(F)(F)F)c(C)n3)CC[C@]2(c2cc(F)cc(F)c2)O1 (stereo partly drawn) [Compound 308]
55 | ≤ 2 µM | [2H]C1([2H])OC2CN(C(=O)c3ccc(OCCOC(F)(F)F)c(OC)n3)CC[C@]2(c2cc(F)cc(F)c2)O1 (stereo partly drawn) [Compound 309]
56 | ≤ 2 µM | COc1cc(C(=O)N2CC[C@]3(c4ccccn4)OC(C)(C)OC3C2)ccc1OCCOC(F)(F)F (stereo partly drawn) [Compound 310]
57 | ≤ 2 µM | CC(Oc1ccc(C(=O)N2CC[C@]3(c4ccccn4)OCOC3C2)cc1C(F)(F)F)C(F)(F)F (stereo partly drawn) [Compound 311]
58 | ≤ 2 µM | O=C(c1ccc(OCC2CC(F)(F)C2)c(C(F)(F)F)c1)N1CC[C@]2(c3ccccn3)OCOC2C1 (stereo partly drawn) [Compound 312]
59 | 2 to 5 µM | CC(F)(F)COc1ccc(C(=O)N2CC[C@]3(c4ccccn4)OCOC3C2)cc1C(F)(F)F (stereo partly drawn) [Compound 313]
60 | ≤ 2 µM | COc1cc(C(=O)N2CC[C@]3(c4cccc(OCC(C)C)n4)OCOC3C2)ccc1OCCOC(F)(F)F (stereo partly drawn) [Compound 314]
